According to US20120322060A1, “DIAGNOSIS AND MONITORING TREATMENT OF PSYCHIATRIC DISEASES WITH SPADIN AND RELATED METHODS” (CENTRE NATIONAL DE LE RECHERCHE SCIENTIFIQUE - CNRS -, priority 2011, published 2012):
“Also recorded” adds a separate entry of the source. No end group written: not given here.

Assays:
mice [1] = experiment: Elevated plus-maze; format: in vivo, mouse; settings: spadin i.p. 10^-5 M, diazepam i.p. 0.5 mg/kg
Excerpt: Elevated plus-maze. The apparatus consisted of two open and two enclosed arms of the same size (45×5 cm) with walls 15 cm high. The arms, constructed of black acrylic, radiate from a common central platform (5×5 cm) to form a plus sign. Open arms were arranged opposite to one another, as were closed arms. The maze was elevated to a height of 45 cm above floor level. Each mouse was placed in the central platform facing one of the open arms. The number of entries into the open and closed arms and the time spent on the open and closed arms were recorded during a 5 min test period. Time spent in the unprotected open arms as well as the number of entries in open arms in relation to the total of arm entries are used as experimental indices of anxiety.

[2] = in vivo
Procedure: Since spadin exerted efficient effects after i.p. or i.v. administration, we evaluated its ability to pass through the blood-brain barrier. ^125I-labelled spadin (1 nmol of spadin plus 2×10^6 cpm ^125I-spadin) was i.v. injected and animals were sacrificed 30 min following injection. The brains were rapidly removed and homogenized. The radioactivity recovered in the brain was acid-extracted, quantified and analyzed by HPLC. […] The concentration of spadin recovered into the brain was estimated to stand around 10 nM, a concentration that corresponds to the affinity of spadin for TREK-1 and sufficient to be active on TREK-1 channel activity. This value was also in the same range of the IC50 determined by electrophysiological measurements (FIG. 3C).

rats = experiment: Forced Swim Test (FST) in rats; format: in vivo, rat; settings: acute i.p. 10^-5 M, 30 min before test
Procedure: Male Sprague-Dawley rats (Janvier, France), weighing 250-300 g were also used for the FST. Rats experienced a pretest session followed 24 h later by a test session. For both the pretest and the test sessions, conducted under low illumination (15 W), the animals were placed in a plastic cylindrical tank (50 cm high by 20 cm in diameter) filled with 40 cm deep water at 24° C. The pretest was carried out for 15 minutes and the test for 5 minutes in the same tank. The total period of immobility was analyzed during the last 4 min.

DRN 5-HT neurons = experiment: Rat extracellular unitary recordings of DRN 5-HT neurons; format: in vivo; settings: rats, 10^-5 M in 500 μl bolus i.p.
Procedure: Single-barreled glass micropipettes (recording electrodes) were filled with a 2 M NaCl solution saturated with Fast Green FCF, resulting in an impedance of 2-5 MΩ. Rats were anaesthetized with chloral hydrate (400 mg/kg, i.p., using a 8% solution), and placed in a stereotaxic frame. A burr hole was drilled on the midline 1 mm anterior to lambda. DRN 5-HT neurons were encountered over a distance of 1 mm starting immediately below the ventral border of the Sylvius aqueduct. They were identified using the following criteria: a slow (0.5-2.5 Hz) and regular firing rate and long-duration (0.8-1.2 ms) action potentials, with a positive-negative spike. Spikes were computed by using the Spike 2 software, so that the firing rate was calculated as the mean number of events occurring within a 10 s period. For each neuron, the discharge was monitored during 60 seconds. Each rat received either spadin (10^−5M in a 500 μl bolus) or its vehicle. Starting 30 min after the injection, 2 to 3 successive descents were performed along the DRN, for a total of 8-12 cells recorded per animal. Recordings were performed for a maximal duration of 4 hours post-injection.

CREB = experiment: pCREB immunostaining in hippocampal sections; format: in vivo, mouse; settings: 4 days, i.p. 10^-5 M, hippocampal SGZ
Procedure: Free floating sections were permeabilized in 0.1% Triton/PBS for 10 min and blocked with 3% goat serum/PBS for 2 hours at room temperature followed by a single wash in PBS. Sections were then incubated with the monoclonal anti-pCREB antibody (1:300, Cell Signaling Technology) overnight at 4° C. After three washes in PBS, sections were then incubated in biotinylated horse anti-rabbit IgG (Jackson ImmunoResearch, diluted 1:15000) for 2 hours at room temperature. pCREB expression was visualized by 3.3′-diaminobenzidine (DAB) staining using the VectaStain ABC kit (Biovalley). All sections were washed and mounted with Entellan. For BrdU/pCREB immunofluorescence staining, free floating sections of mice injected with BrdU were incubated with the primary antibodies, anti-rabbit pCREB (1:500, Cell Signaling Technology) and anti-mouse BrdU (1:40, Becton-Dickinson). After three washesin PBS, sections were then incubated in anti-IgGAlexa 488- or 594-coupled antibodies (Molecular Probes) for 1 h at room temperature. After drying sections in the dark boxes for 2 hours, they were mounted with Vectashield (Vector laboratories). Confocal microscopy observations were performed with the Laser Scanning Confocal Microscope (TCS SP, Leica) equipped with a DMIRBE inverted microscope, using a Plan Apo 63x/1,4 NA oil immersion objective.

mice [3] = experiment: Conditioned Suppression of Motility test (CMST); format: in vivo, mouse
Procedure: Mice were placed in a rectangular cage (20×20×27 cm) with a metallic grid floor, located in a sound-proof room illuminated by a 75 W bulb. There were 12 squares drawn on the floor for counting animal displacements. On the first day, the mouse was left in the test cage for 6 min and received 30 electric footshocks of 1.8 mA during 200 ms (one shock every 12 s.). On the second day, the mouse was again placed in the same cage without receiving electric footshocks (conditioned suppression group). Motility changes were observed by counting the number of squares crossed plus the number of climbing in 6 min. Each control group was treated exactly by the same way, except for the absence of the electric foot-shock. In this test, the mice learned to associate a conditioned stimulus (CS: test chamber) with an unconditioned stimulus (US: footshocks). After the pairing of CS and US, a robust associative memory of the CS-US was formed such that the CS alone could elicit a fear response (behavioral immobility or freezing).

mice [4] = experiment: Learned Helplessness (LH) test; format: in vivo, mouse; settings: acute i.v., 10^-6 M, shocked mice
Procedure: LH training was carried out in 2-way shuttle plexiglas boxes (Imetronic). Each box was divided in 2 equal compartments (19.5×10×13 cm) separated by a wall equipped with, a gate (4.7×4.7 cm) that was closed during LH training but opened automatically during shuttle escape testing. LH was induced in shocked group by administering 360 inescapable, 2-s duration footshocks (0.3 mA intensity), administered once every 10 s over a 1-hour session. Scrambled shocks were delivered by a source shock to a grid floor, which was made of stainless steel bars 2 mm in diameter, spaced 4 mm apart. […] 24 hours later, escape testing was performed in the same box, but the animals had the possibility to avoid shocks by moving through the gate to the other side of the box. During testing sessions, all mice were given 30 shuttle escape trials with 30 s intervals between the start of each trial. While on the first five trials, the gate opened at the same time as the shock (0.3 mA), for the 25 remaining trials, the gate opened 2 s after shock onset. Each trial (with a maximal 24 s) duration was terminated when the mouse went into the adjacent compartment. Escape latencies were averaged over 5 trials. Overall escape latencies were computed by averaging escape latencies over 30 trials.

## APLPRWSGPIGVSWGLR [spadin]
Mice [1]
  time spent in the open arms: had no effect
[2]
  amount of spadin recovered in the brain: Identical amounts
rats
  immobility time versus saline: significantly reduced immobility time; also recorded: shorter time of immobility
DRN 5-HT neurons
  DRN 5-HT neuron firing rate: 2.66±0.36 Hz
  increase of DRN 5-HT neuron firing rate versus saline: 125%
CREB
  number of pCREB-labelled neurons versus saline: two-fold increase
Mice [3]; i.v., 10^-6 M
  reduction of conditioned suppression of motility: 84.4%
Mice [3]; injection in kcnk2-/- mice
  effect in CMST: did not induce any change
Mice [3]; shocked group, acute spadin
  motility (squares crossed plus climbings): 78±7 counts
Mice [4]
  reduced escape latencies after training versus saline: 25.4%
